Measured values taken from patent US10370401B2, “Substituted nucleosides, nucleotides and analogs thereof” (Alios BioPharma, Inc., priority 2013, dated 2019).
Read-outs that look alike come from different tables or passages of the source.

Assays:
Human rhinovirus 1B = assay: Picornavirus assay (CPE, CellTiter-Glo, HeLa-OHIO cells); format: cell-based
[1] = system: Dengue virus type 2 strain New Guinea C (NG-C) or Dengue virus type 4 strain H241; assay: Dengue virus cell-based assay (Huh-7.5 cells, CellTiter-Glo)
Procedure: The Dengue virus type 2 strain New Guinea C (NG-C) and the Dengue virus type 4 strain H241 were purchased from ATCC (Manassas, Va.; item numbers VR-1584 and VR-1490, respectively). 24 h prior to dosing, Huh-7.5 cells were plated in 96 well plates at a density of 1.5×10^5/mL in DMEM medium supplemented with 10% fetal bovine serum, 1% HEPES buffer, 1% Penicillin/Streptomycin and 1% non-essential amino acids (all Mediatech, Manassas, Va.). At the day of infection, serially diluted compounds were added to cells and incubated for 4 h. After the end of the 4 h pre-incubation period, cells were infected with either Dengue virus type 2 NG-C or Dengue virus type 4H241. The virus inoculum was selected to cause 80-90% cytopathic effect in five to six days. Infected cells were incubated for five (NG-C) to six (H241) days at 37° C., 5% CO2. To develop the assay, 100 μL media was replaced with 100 μl CellTiter-Glo® reagent (Promega, Madison, Wis.), and incubated for 10 mins at RT. Luminescence was measured on a Victor X3 multi-label plate reader. Potential compound cytotoxicity of was determined using uninfected parallel cultures.

subgenomic HCV replicon = assay: HCV replicon assay (Huh-7, luciferase reporter); format: cell-based; settings: Hepatitis C virus, Huh-7, 72 h
[2] = target: dengue virus NS5 polymerase domain (DENVpol, serotype 2, New Guinea C strain) (Dengue virus type 2, UniProt P14340); assay: Dengue virus polymerase inhibition assay; format: biochemical; settings: DENVpol serotype 2, 3 hours at 30° C., mean of several independent experiments
Procedure: The enzyme activity of dengue virus NS5 polymerase domain (DENVpol, serotype 2, New Guinea C strain) was measured as an incorporation of tritiated NMP into acid-insoluble RNA products. DENVpol assay reactions contained 100 nM recombinant enzyme, 50 nM heteropolymeric RNA, about 0.5 μCi tritiated NTP, 0.33 μM of competing cold NTP, 40 mM HEPES (pH 7.5), 3 mM dithiothreitol, and 2 mM MgCl2. Standard reactions were incubated for 3 hours at 30° C., in the presence of increasing concentration of inhibitor. At the end of the reaction, RNA was precipitated with 10% TCA, and acid-insoluble RNA products were filtered on a size exclusion 96-well plate. After washing of the plate, scintillation liquid was added and radiolabeled RNA products were detected according to standard procedures with a Trilux Topcount scintillation counter. The compound concentration at which the enzyme-catalyzed rate was reduced by 50% (IC50) was calculated by fitting the data to a non-linear regression (sigmoidal).

[3] = target: human rhinovirus 16 polymerase (HRV16pol) (Human rhinovirus 16, UniProt Q82122); assay: biochemical; settings: HRV16pol, 2.5 h at 30° C., mean of several independent experiments; read-out: IC50
Sequence of human rhinovirus 16 polymerase (HRV16pol) (Q82122 1694-2153 limits assumed): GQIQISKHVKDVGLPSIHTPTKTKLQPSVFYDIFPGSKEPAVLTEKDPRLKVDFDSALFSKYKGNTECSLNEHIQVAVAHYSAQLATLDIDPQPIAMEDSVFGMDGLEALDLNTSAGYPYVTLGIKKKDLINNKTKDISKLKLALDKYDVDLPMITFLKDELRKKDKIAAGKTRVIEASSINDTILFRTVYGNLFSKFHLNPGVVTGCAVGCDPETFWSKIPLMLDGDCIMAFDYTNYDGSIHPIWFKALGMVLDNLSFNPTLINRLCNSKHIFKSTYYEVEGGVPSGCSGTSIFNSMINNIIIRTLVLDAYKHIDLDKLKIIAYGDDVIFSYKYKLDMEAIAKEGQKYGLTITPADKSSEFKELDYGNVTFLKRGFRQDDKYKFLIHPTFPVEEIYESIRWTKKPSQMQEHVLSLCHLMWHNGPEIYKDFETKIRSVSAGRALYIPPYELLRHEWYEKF

HRV-89 = assay: Human rhinovirus strain panel assay, HRV-89; format: cell-based; settings: Rhinovirus A, HRV89
[4] = Cytotoxicity in HeLa OHIO host cell line; format: cell-based; settings: human, HeLa-OHIO cells, n>5
NS5B570-Con1 (Delta-21) = NS5B570-Con1 (Delta-21) (Hepatitis C virus genotype 1b, UniProt Q9WMX2); assay: biochemical; design: species or system HCV
[5] = Rhinovirus A, 96 h, Human rhinovirus 1B, HeLa-OHIO cells, 4 d at 33° C., read-out: EC50
[6] = Human rhinovirus 1B, HeLa-OHIO cells, 4 d at 33° C., read-out: EC50
[7] = Huh-7.5 cells, antiviral activity, dengue type (2 NG-C or 4 H241) not given, read-out: IC50

IC50 [2] [µM]	Compound	IC50 ([1]; Dengue virus, Huh7.5) [µM]	IC50 [3] [µM]	other results
	CC(C)OC(=O)OCOP(=O)(OCOC(=O)OC(C)C)OC[C@@]1(F)O[C@@H](n2ccc(=O)[nH]c2=O)[C@](C)(O)[C@@H]1O [Compound 9]	< 10		EC50 (Human rhinovirus 1B; [5]): < 1 µM
	CCOc1nc(N)nc2c1ncn2[C@@H]1O[C@](F)(COP(=O)(N[C@@H](C)C(=O)OC2CCCCC2)Oc2ccccc2)[C@@H](O)[C@@]1(C)O (stereo partly drawn) [Compound 10]	< 1		EC50 (Human rhinovirus 1B; Rhinovirus A, 96 h): < 1 µM
	C#C[C@]1(O)[C@H](n2ccc(=O)[nH]c2=O)O[C@](F)(COP(=O)(N[C@@H](C)C(=O)OC2CCCCC2)Oc2ccccc2)[C@H]1O (stereo partly drawn) [Compound 13]	< 1		EC50 (Human rhinovirus 1B; Rhinovirus A, 96 h): < 1 µM
	C[C@H](NP(=O)(OC[C@@]1(F)O[C@@H](n2cnc3c(=O)[nH]c(N)nc32)[C@](C)(O)[C@@H]1F)Oc1ccccc1)C(=O)OC1CCCCC1 (stereo partly drawn) [Compound 14]	< 10		EC50 (Human rhinovirus 1B; Rhinovirus A, 96 h): 10 to 100 µM; EC50 (subgenomic HCV replicon): 10 to 100 µM
	CCOc1nc(N)nc2c1ncn2[C@@H]1O[C@](F)(COP(=O)(N[C@@H](C)C(=O)OC2CCCCC2)Oc2ccccc2)[C@@H](F)[C@@]1(C)O (stereo partly drawn) [Compound 16]	< 10		EC50 (Human rhinovirus 1B; Rhinovirus A, 96 h): 1 to 10 µM; EC50 (subgenomic HCV replicon): 1 to 10 µM
	CCOc1nc(N)nc2c1ncn2[C@@H]1O[C@](F)(CO[P@](=O)(N[C@@H](C)C(=O)OC2CCCCC2)Oc2ccccc2)[C@@H](O)[C@@]1(C)F [Compound 25]	< 1		EC50 (Human rhinovirus 1B; Rhinovirus A, 96 h): < 1 µM
	CCOc1nc(N)nc2c1ncn2[C@@H]1O[C@](F)(CO[P@@](=O)(N[C@@H](C)C(=O)OC2CCCCC2)Oc2ccccc2)[C@@H](O)[C@@]1(C)F [Compound 26]	< 1		EC50 (Human rhinovirus 1B; Rhinovirus A, 96 h): 1 to 10 µM
	C#C[C@]1(O)[C@H](n2cnc3c(OCC)nc(N)nc32)O[C@](F)(CO[P@](=O)(N[C@@H](C)C(=O)OC2CCCCC2)Oc2ccccc2)[C@H]1O [Compound 27]			EC50 (Human rhinovirus 1B; [6]): < 1 µM; IC50 [1, 7]: < 10 µM
	C#C[C@]1(O)[C@H](n2cnc3c(OCC)nc(N)nc32)O[C@](F)(CO[P@@](=O)(N[C@@H](C)C(=O)OC2CCCCC2)Oc2ccccc2)[C@H]1O [Compound 28]			EC50 (Human rhinovirus 1B; [6]): < 1 µM; IC50 [1, 7]: < 10 µM
	CC(C)OC(=O)OCOP(=O)(OCOC(=O)OC(C)C)OC[C@@]1(F)O[C@@H](n2cnc3c(=O)[nH]c(N)nc32)[C@](C)(O)[C@@H]1O [Compound 46]	< 100		EC50 (Human rhinovirus 1B; [5]): < 1 µM
	C#C[C@]1(O)[C@H](n2ccc(=O)[nH]c2=O)O[C@](F)(COP(=O)(OCOC(=O)OC(C)C)OCOC(=O)OC(C)C)[C@H]1O [Compound 53]	< 10		EC50 (Human rhinovirus 1B; [5]): < 1 µM
	CCOc1nc(N)nc2c1ncn2[C@@H]1O[C@](F)(COP(=O)(OCOC(=O)OC(C)C)OCOC(=O)OC(C)C)[C@@H](O)[C@@]1(C)O [Compound 55]	< 1		EC50 (Human rhinovirus 1B; [5]): < 1 µM
	CCOc1nc(N)nc2c1ncn2[C@@H]1O[C@]2(F)CO[P@](=O)(OC(C)C)O[C@H]2[C@@]1(C)F [Compound 86]	< 1		EC50 (Human rhinovirus 1B; [5]): 10 to 100 µM
	CCOc1nc(N)nc2c1ncn2[C@@H]1O[C@]2(F)CO[P@](=O)(OC(C)C)O[C@H]2[C@@]1(C)O [Compound 88]	< 10		EC50 (Human rhinovirus 1B; [5]): 10 to 100 µM
	CCOc1nc(N)nc2c1ncn2[C@@H]1O[C@]2(F)CO[P@@](=O)(OC(C)C)O[C@H]2[C@@]1(C)O [Compound 89]	< 10		EC50 (Human rhinovirus 1B; [5]): 10 to 100 µM
< 1	C[C@]1(O)[C@H](n2ccc(=O)[nH]c2=O)O[C@](F)(COP(=O)(O)OP(=O)(O)OP(=O)(O)O)[C@H]1O [Compound 110]		< 10	
	CC(C)OC(=O)OCOP(=O)(OCOC(=O)OC(C)C)OC[C@@]1(CF)O[C@@H](n2ccc(=O)[nH]c2=O)[C@](C)(O)[C@@H]1OC(=O)C(N)C(C)C (stereo partly drawn) [Compound 160]			EC50 (Human rhinovirus 1B; Rhinovirus A, 96 h): < 1 µM; EC50 (HRV-89): 1 to 2 µM; CC50 [4]: > 100 µM
	CC(C)OC(=O)OCOP(=O)(OCOC(=O)OC(C)C)OC[C@@]1(F)O[C@@H](n2ccc(=O)[nH]c2=O)[C@](C)(F)[C@@H]1O [Compound 161]	< 10		EC50 (Human rhinovirus 1B; [5]): 1 to 10 µM
< 1	C[C@]1(F)[C@H](n2ccc(N)nc2=O)O[C@](F)(COP(=O)(O)OP(=O)(O)OP(=O)(O)O)[C@H]1O [compound 29]		< 1	
< 10	C#C[C@]1(O)[C@H](n2ccc(=O)[nH]c2=O)O[C@](F)(COP(=O)(O)OP(=O)(O)OP(=O)(O)O)[C@H]1O [compound 114]		< 1	
< 1	C#C[C@]1(O)[C@H](n2cnc3c(=O)[nH]c(N)nc32)O[C@](F)(COP(=O)(O)OP(=O)(O)OP(=O)(O)O)[C@H]1O [compound 115]		< 1	
< 10	C#C[C@]1(F)[C@H](n2cnc3c(=O)[nH]c(N)nc32)O[C@](F)(COP(=O)(O)OP(=O)(O)OP(=O)(O)O)[C@H]1O [compound 123]		< 1	
< 10	C[C@]1(O)[C@H](n2ccc(N)nc2=O)O[C@](F)(COP(=O)(O)OP(=O)(O)OP(=O)(O)O)[C@H]1O [compound 124]		< 1	
< 10	C[C@]1(F)[C@H](n2ccc(=O)[nH]c2=O)O[C@](F)(COP(=O)(O)OP(=O)(O)OP(=O)(O)O)[C@H]1O [compound 147]			
< 10	Nc1nc2c(ncn2[C@@H]2O[C@](F)(COP(=O)(O)OP(=O)(O)OP(=O)(O)O)[C@@H](O)[C@H]2F)c(=O)[nH]1 [compound 163]			
< 100	Nc1ccn([C@@H]2O[C@](CCl)(COP(=O)(O)OP(=O)(O)OP(=O)(O)O)[C@@H](O)[C@H]2O)c(=O)n1 [compound 164]			

Compound	IC50 [2] [µM]	IC50 ([1]; Dengue virus, Huh7.5) [µM]	IC50 [3] [µM]	other results
C[C@]1(F)[C@H](n2cnc3c(=O)[nH]c(N)nc32)O[C@](F)(COP(=O)(O)OP(=O)(O)OP(=O)(O)O)[C@H]1O [compound 19]	< 10		< 1	IC50 (NS5B570-Con1 (Delta-21)): < 1 µM
C[C@@]1(O)[C@H](O)[C@@](CF)(COP(=O)(O)OP(=O)(O)OP(=O)(O)O)O[C@H]1n1cnc2c(=O)[nH]c(N)nc21 [compound 34]	< 1		< 1	IC50 (NS5B570-Con1 (Delta-21)): < 1 µM
C[C@@]1(O)[C@H](O)[C@@](CF)(COP(=O)(O)OP(=O)(O)OP(=O)(O)O)O[C@H]1n1ccc(N)nc1=O [compound 91]	< 100		< 10	IC50 (NS5B570-Con1 (Delta-21)): < 1 µM
C[C@@]1(O)[C@H](O)[C@@](CF)(COP(=O)(O)OP(=O)(O)OP(=O)(O)O)O[C@H]1n1ccc(=O)[nH]c1=O [compound 92]	< 10		< 1	IC50 (NS5B570-Con1 (Delta-21)): < 1 µM
C[C@]1(O)[C@H](n2cnc3c(=O)[nH]c(N)nc32)O[C@](F)(COP(=O)(O)OP(=O)(O)OP(=O)(O)O)[C@H]1F [compound 101]	< 10		< 1	IC50 (NS5B570-Con1 (Delta-21)): < 1 µM
C#C[C@]1(O)[C@H](n2cnc3c(=O)[nH]c(N)nc32)O[C@](F)(COP(=O)(O)OP(=O)(O)OP(=O)(O)O)[C@H]1F [compound 103]	< 1		< 1	IC50 (NS5B570-Con1 (Delta-21)): < 1 µM
C[C@]1(Cl)[C@H](n2ccc(=O)[nH]c2=O)O[C@](F)(COP(=O)(O)OP(=O)(O)OP(=O)(O)O)[C@H]1O [compound 149]	< 10			IC50 (NS5B570-Con1 (Delta-21)): < 1 µM
C[C@@]1(F)[C@H](O)[C@@](CF)(COP(=O)(O)OP(=O)(O)OP(=O)(O)O)O[C@H]1n1cnc2c(=O)[nH]c(N)nc21 [compound 162]	< 10		< 1	IC50 (NS5B570-Con1 (Delta-21)): 1 to 10 µM
